Experimental data reported in patent US6716987B1, “Derivatives of benzofuran or benzodioxazole compounds” (Kyowa Hakko Kogyo Co., Ltd., priority 1995, dated 2004).

Columns and labels:
[1] = tested on: histamine-induced bronchoconstriction; assay: Suppression of histamine-induced bronchoconstriction response in guinea pig; assay type: in vivo; conditions: intravenous administration; histamine 10 μg/kg iv
Method: This test was carried out by a modified Konzett and Rossler method. Under anesthesia with urethane (1.2 g/kg, ip), male Hartley guinea pigs (body weight: 500 to 600 g) were fixed on plates by strings. After undertaking a tracheotomy, cannulae were inserted to the tracheae, right carotid arteries, and left cervical veins. The spontaneous respiration of the guinea pigs was stopped by the administration of gallamie (10 mg/kg) from the left cervical veins via the cannulae. The cannulae inserted into the tracheae were connected to a bronchospasm transducer (Ugo Basile) and a respirator (TB-101, Takashima-shoten, 60 to 70 strokes/minutes, output: 5 cc) and the air overflow volume was recorded by a polygraph (RM-45, Nippon Koden) to measure the amount of bronchoconstriction. For measuring blood pressure, the cannulae inserted in the right carotid arteries were connected to a blood-pressure transducer. Constant bronchoconstriction occurred when histamine (10 μg/kg, iv) was administered at 3 minutes intervals, and the induced bronchoconstriction was used as the control. A test compound was intravenously administered, and one minute later histamine (10 μg/kg, iv) was administered. The test compound was cumulatively administered at 5 minutes intervals, and the bronchoconstriction in control and that after the administration of the test compound was compared.

[2] = tested on: cAMP-specific phosphodiesterase (PDE IV); assay: Inhibition of the PDE IV enzyme derived from a dog trachea; assay type: biochemical; conditions: test compound 10^−6 M; PDE IV from dog tracheal smooth muscle; substrate cAMP 1 μM
How it was run: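 Enzyme purified from dog tracheal smooth muscle; [3H]cAMP substrate at 1 μM final in 50 mM BES pH 7.2, 1 mM MgCl2, 0.1 mg/ml soybean trypsin inhibitor, 30° C for 10–30 min, 1.7% DMSO final. After HCl stop, product converted to adenosine by 5′-nucleotidase, separated on DEAE-Sephadex and scintillation-counted.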

[3] = tested on: guinea pig bronchial smooth muscle; assay: Suppression of passive Schultz-Dale response in guinea pig bronchial smooth muscle; conditions: Cavia porcellus; ovalbumin-induced constriction of passively sensitized guinea pig tracheal strips; read-out: IC50 (concentration causing 50% relaxation)
Method: For passive sensitization, rabbit anti-ovalbumin serum prepared by the method of Kohda et al. [Nichiyakurishi, 66, 237 (1970)] was peritoneally administered to male Hartley guinea pigs weighing 350 to 500 g, and 24 hours later the tracheae thereof were removed to be used for the experiment. Zig-zag strips were prepared from the tracheae in accordance with the method of Emmerson and Mackay [J. Pharm. Pharmacol., 31, 798 (1979)], and they were suspended in a Krebs-Henseleit solution with aeration of a mixture of 95% oxygen and 5% carbon dioxide at 37° C. After stabilizing for approximately one hour, ovalbumin, as the antigen, was added to the mixture (at a final concentration of […]), and the constriction of the muscle was recorded by a recorder (TYPE 3066; Yokokawa Hokushin Denki) via an isotonic transducer (TD-112S; Nippon Koden). A test compound was cumulatively added to the mixture after the constriction had reached the plateau, and the relaxation ratio was determined. The concentration (IC50) causing 50% relaxation was calculated by linear regression analysis.

[4] = tested on: anaphylactic bronchoconstriction; assay: Effect on anaphylactic bronchoconstriction response; assay type: in vivo, guinea pig; conditions: oral administration one hour before the antigen; from AUC suppression ratio
Method: For passive sensitization, 1 ml of rabbit anti-ovalbumine serum was peritoneally administered to male Hartley guinea pigs, and 16 to 24 hours later, ovalbumine was intravenously administered as the antigen. The induced anaphylactic bronchoconstriction was measured by the modified Konzett and Rossler method. Each of the tracheal cannulae was completely closed at the end of the measurement and the measured constriction was defined as the maximum constriction. Changes in the constriction were measured as percentage in the maximum constriction. The area under the curve (AUC) indicating the strength of the response was calculated by an image analyzer (MCID system, Imaging Research Company). The test compound was orally administered one hour before the antigen administration, and the ID50 value of each drug was calculated from the AUC suppression ratio by linear regression analysis.

phosphodiesterase 4A = target: T1, phosphodiesterase 4A (Homo sapiens, UniProt P27815); assay: Recombinant human PDE4A assay; assay type: biochemical
T1 construct: made in house; host or cells: E. coli
T1 sequence (P27815 224-886 limits assumed): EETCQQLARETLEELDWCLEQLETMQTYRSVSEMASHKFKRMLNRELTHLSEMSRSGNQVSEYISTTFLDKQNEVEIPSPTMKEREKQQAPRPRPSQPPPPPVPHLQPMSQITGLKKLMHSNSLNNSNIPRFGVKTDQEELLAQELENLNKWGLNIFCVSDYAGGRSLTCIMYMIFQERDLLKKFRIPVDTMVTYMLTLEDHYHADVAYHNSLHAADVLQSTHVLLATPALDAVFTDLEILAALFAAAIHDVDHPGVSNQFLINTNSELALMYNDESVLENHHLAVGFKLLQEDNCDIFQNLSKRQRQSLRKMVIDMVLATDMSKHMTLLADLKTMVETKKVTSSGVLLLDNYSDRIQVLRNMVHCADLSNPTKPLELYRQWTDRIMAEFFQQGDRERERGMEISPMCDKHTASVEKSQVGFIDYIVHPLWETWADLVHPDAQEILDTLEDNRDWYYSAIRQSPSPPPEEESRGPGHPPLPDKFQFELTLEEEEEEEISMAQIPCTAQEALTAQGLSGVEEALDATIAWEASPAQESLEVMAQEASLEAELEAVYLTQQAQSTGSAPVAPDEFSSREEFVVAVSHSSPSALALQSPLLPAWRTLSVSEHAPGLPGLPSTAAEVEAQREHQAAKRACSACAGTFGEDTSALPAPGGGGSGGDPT

Structure (SMILES) | ID50 value (50% inhibitory dose) [1] | melting point | Enzyme Inhibitory Activity (%, 10^−6 M) [2] | IC50 [3] | ID50 value (50% inhibitory dose) [4] | Enzyme Inhibitory Activity (%, 10^−7 M) (phosphodiesterase 4A)
COc1ccc(/C=C/c2ccncc2)c2c1OC(C)(C)C2 [Compound 68, (E)-7-Methoxy-2,2-dimethyl-4-[2-(4-pyridyl)ethenyl]-2,3-dihydrobenzofuran] | 0.076 mg/kg | 145 to 149 °C | 80% | 1.6 µM |  | 
COc1ccc(C(=O)Cc2ccncc2)c2c1OC1(CCCC1)C2.Cl [Compound 100, 7-Methoxy-4-[1-oxo-2-(4-pyridyl)ethyl]-spiro[2,3-dihydrobenzofuran-2,1′-cyclopentane].hydrochloride] |  |  |  |  | 0.53 mg/kg | 99%
